Target: human μ opiate receptor (Homo sapiens, UniProt P35372)
Experiment: μ opiate receptor binding assay with [3H]-naloxone (WGA-SPA beads)
Conditions: mean

Chain of human μ opiate receptor (P35372 whole entry): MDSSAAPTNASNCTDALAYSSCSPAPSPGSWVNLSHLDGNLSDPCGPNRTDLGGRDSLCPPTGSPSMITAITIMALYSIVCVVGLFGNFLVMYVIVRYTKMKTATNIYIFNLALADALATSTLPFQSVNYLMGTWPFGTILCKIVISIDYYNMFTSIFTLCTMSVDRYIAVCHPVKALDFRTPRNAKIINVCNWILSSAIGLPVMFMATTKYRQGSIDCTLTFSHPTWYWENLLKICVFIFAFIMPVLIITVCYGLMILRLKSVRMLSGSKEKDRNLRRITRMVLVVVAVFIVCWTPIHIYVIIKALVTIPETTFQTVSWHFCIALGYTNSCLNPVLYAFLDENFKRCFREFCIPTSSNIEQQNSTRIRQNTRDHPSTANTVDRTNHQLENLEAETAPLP

| Compound | Ki [µM] |
| --- | --- |
| CN(C)C1(Cc2ccccc2)CCC2(CCNC2)CC1 (single isomer, unassigned) [Example 3, (8-Benzyl-3-azaspiro[4.5]decan-8-yl)-dimethylamine] | 1.83 |
| CN1CC2(CCC(C3CCCC3)(N(C)C)CC2)CC1=O (centres unmarked) [Example 282] | 0.295 |
| CN1CCC2(CCC(Cc3ccccc3)(N(C)C)CC2)C1 (single isomer, unassigned) [Example 5, (8-Benzyl-3-methyl-3-azaspiro[4.5]decan-8-yl)-dimethylamine] | 1.45 |
| CN(C)C1(CC2CCCCC2)CCC2(CCNC2=O)CC1 (centres unmarked) [Example 92, 8-(Cyclohexylmethyl)-8-dimethylamino-3-azaspiro[4.5]decan-4-one] | 3590 |
| CN1CCC2(CCC(Cc3ccccc3)(N(C)C)CC2)C1 (single isomer, unassigned) [Example 6, (8-Benzyl-3-methyl-3-azaspiro[4.5]decan-8-yl)-dimethylamine] | 1.1 |
| CN1CCC2(CCC(Cc3ccccc3)(N(C)C)CC2)C1=O (centres unmarked) [Example 119] | 3.57 |
| CN(C)C1(Cc2ccccc2)CCC2(CCNC2)CC1 (single isomer, unassigned) [Example 4, (8-Benzyl-3-azaspiro[4.5]decan-8-yl)-dimethylamine] | 0.92 |
| CN(C)C1(C2CCCC2)CCC2(CCN(C(=O)C3COC3)C2)CC1 (centres unmarked) [Example 291] | 0.175 |
| CCCCN1CCC2(CCC(C(=O)c3ccccc3)(N(C)C)CC2)C1 (single isomer, unassigned) [Example 107, [3-Butyl-8-(dimethylamino)-3-azaspiro[4.5]decan-8-yl]-phenylmethanone] | 0.95 |
| CN(C)C1(Cc2ccccc2)CCC2(CCNC2=O)CC1 (single isomer, unassigned) [Example 2, 8-Benzyl-8-(dimethyl-amino)-3-azaspiro[4.5]decan-4-one] | 4.79 |
| CN1CCC2(CCC(Cc3ccccc3)(N(C)C)CC2)C1=O (centres unmarked) [Example 118] | 5.5 |
| CN(C)C1(Cc2ccccc2)CCC2(CCNC2=O)CC1 (single isomer, unassigned) [Example 1, 8-Benzyl-8-(dimethyl-amino)-3-azaspiro[4.5]decan-4-one] | 1.06 |

Test system: not given
Experiment: not given
Conditions: not given

| Compound | melting point [°C] |
| --- | --- |
| CN1CCC2(CCC(Cc3ccccc3)(N(C)C)CC2)C1 (single isomer, unassigned) [Example 6, (8-Benzyl-3-methyl-3-azaspiro[4.5]decan-8-yl)-dimethylamine] | 57 to 58 |
| CN(C)C1(Cc2ccccc2)CCC2(CCNC2=O)CC1 (single isomer, unassigned) [Example 2, 8-Benzyl-8-(dimethyl-amino)-3-azaspiro[4.5]decan-4-one] | 202 to 204 |

Source: patent publication US10202345B2, “Substituted azaspiro(4.5)decane derivatives” (priority 2014, dated 2019)
